Measurements as given in patent US20230085307A1, “PYRIDAZINONE COMPOUND AND HERBICIDE” (NISSAN CHEMICAL CORPORATION, priority 2019, published 2023).

Experiments:
wild oat [1] = assay: Test Example 4: herbicidal effect by soil treatment (Table 19, symbol I); assay type: in vivo, wild oat (Avena fatua); details: amount of applied herbicide 320 g/ha
Outline: (§1)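 Applied as a water-diluted emulsion, the compound was sprayed onto soil covering newly sown seeds. Evaluation came three weeks after application, in a greenhouse held at 25° C. to 30° C.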

barnyard grass = assay: Test Example 4: herbicidal effect by soil treatment (Table 19, symbol H); assay type: in vivo, barnyard grass (Echinochloa crus-galli); details: amount of applied herbicide 320 g/ha
Outline: as §1

late watergrass = assay: Test Example 1: herbicidal activity, application before weed generation under submerged conditions (Table 16, symbol A); assay type: in vivo, late watergrass (Echinochloa oryzicola); details: amount of applied herbicide 320 g/ha
Outline: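 Emulsion formulation, water-diluted to set dose, was put onto the flooded surface (4 cm depth, alluvial soil) the same day weeds were sown and 2.5-leaf rice transplanted. After 3 weeks at 25-30 °C under glass, each species was rated 0 (≤5% kill) to 5 (≥90% kill).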

lambsquarters [2] = assay: Test Example 5: herbicidal effect by foliage application, plastic box (Table 20, symbol O); assay type: in vivo, lambsquarters (Chenopodium album); details: foliage application, 320 g/ha, three weeks after application
Outline: (§2)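 Sow seeds spot-wise in sterilized diluvial soil; cover with ~1.5 cm soil. Grow 14 days in greenhouse, 25° C. to 30° C. Spray foliage with emulsion diluted to predetermined amount. Rate effect after 3 weeks.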

green foxtail [3] = assay: Test Example 4: herbicidal effect by soil treatment (Table 19, symbol G); assay type: in vivo, green foxtail (Setaria viridis); details: amount of applied herbicide 320 g/ha
Outline: as §1

green foxtail [4] = assay: Test Example 5: herbicidal effect by foliage application, plastic box (Table 20, symbol G); assay type: in vivo, green foxtail (Setaria viridis); details: foliage application, 320 g/ha, three weeks after application
Outline: as §2

wild oat [5] = assay: Test Example 5: herbicidal effect by foliage application, plastic box (Table 20, symbol I); assay type: in vivo, wild oat (Avena fatua); details: foliage application, 320 g/ha, three weeks after application
Outline: as §2

persian speedwell = assay: Test Example 5: herbicidal effect by foliage application, plastic box (Table 20, symbol R); assay type: in vivo, Persian speedwell (Veronica persica); details: foliage application, 320 g/ha, three weeks after application
Outline: as §2

Chinese sprangletop = assay: Test Example 3: herbicidal effect by foliage application, Wagner pot (Table 18, symbol D); assay type: in vivo, chinese sprangletop (Leptochloa chinensis); details: 320 g/ha
Outline: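 Plants were sown in alluvial soil held under 0.1–0.5 cm standing water and grown 14 days in a greenhouse at 25–30 °C. An emulsifiable formulation, water-diluted to the set dose, was then sprayed onto the foliage, and effects were scored three weeks later using previously defined criteria.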

Italian ryegrass = assay: Test Example 4: herbicidal effect by soil treatment (Table 19, symbol K); assay type: in vivo, Italian ryegrass (Lolium multiflorum); details: amount of applied herbicide 320 g/ha
Outline: as §1

chickweed = assay: Test Example 4: herbicidal effect by soil treatment (Table 19, symbol P); assay type: in vivo, common chickweed (Stellaria media); details: amount of applied herbicide 320 g/ha
Outline: as §1

redroot pigweed = assay: Test Example 5: herbicidal effect by foliage application, plastic box (Table 20, symbol N); assay type: in vivo, redroot pigweed (Amaranthus retroflexus); details: foliage application, 320 g/ha, three weeks after application
Outline: as §2

windgrass [6] = assay: Test Example 5: herbicidal effect by foliage application, plastic box (Table 20, symbol L); assay type: in vivo, windgrass (Apera spica-venti); details: foliage application, 320 g/ha, three weeks after application
Outline: as §2

windgrass [7] = assay: Test Example 4: herbicidal effect by soil treatment (Table 19, symbol L); assay type: in vivo, windgrass (Apera spica-venti); details: amount of applied herbicide 320 g/ha
Outline: as §1

velvetleaf = assay: Test Example 5: herbicidal effect by foliage application, plastic box (Table 20, symbol M); assay type: in vivo, velvetleaf (Abutilon theophrasti); details: foliage application, 320 g/ha, three weeks after application
Outline: as §2

lambsquarters [8] = assay: Test Example 4: herbicidal effect by soil treatment (Table 19, symbol O); assay type: in vivo, lambsquarters (Chenopodium album); details: amount of applied herbicide 320 g/ha
Outline: as §1

Japanese bulrush = assay: Test Example 2: herbicidal activity, application during weed generation under submerged conditions (Table 17, symbol B); assay type: in vivo, Japanese bulrush (Schoenoplectus juncoides); details: AAH 320 g/ha; application during weed generation, submerged conditions
Outline: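 Steps: fill Wagner pots with alluvial soil; add water to give 4 cm depth; sow the species mixed; grow under glass at 25–30° C.; at 1–2 leaves apply water-diluted emulsion formulation to the water surface at a fixed herbicide amount; score after 3 weeks.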

Structure (SMILES)	I: wild oat, herbicidal effect grade (wild oat [1])	H: barnyard grass, herbicidal effect grade (barnyard grass)	Herbicidal effect, A: late watergrass (late watergrass)	O: lambsquarters, herbicidal effect grade (lambsquarters [2])	G: green foxtail, herbicidal effect grade (green foxtail [3])	G: green foxtail, herbicidal effect grade (green foxtail [4])	I: wild oat, herbicidal effect grade (wild oat [5])	R: persian speedwell, herbicidal effect grade (persian speedwell)	herbicidal effect on Chinese sprangletop (D) (Chinese sprangletop)	K: Italian ryegrass, herbicidal effect grade (Italian ryegrass)	P: chickweed, herbicidal effect grade (chickweed)	N: redroot pigweed, herbicidal effect grade (redroot pigweed)	L: windgrass, herbicidal effect grade (windgrass [6])	L: windgrass, herbicidal effect grade (windgrass [7])	M: velvetleaf, herbicidal effect grade (velvetleaf)	O: lambsquarters, herbicidal effect grade (lambsquarters [8])	herbicidal effect rating, B: Japanese bulrush (Japanese bulrush)
CCOc1cc(F)ccc1-c1sc2cc(C)ccc2c1-c1c(O)c(C)nn(C)c1=O [3-057]	3 (Herbicidal rate of 40% or more and less than 70%)	4 (Herbicidal rate of 70% or more and less than 90%)	5 (Herbicidal rate of 90% or more (almost completely withered))	5 (Herbicidal rate of 90% or more (almost completely withered))	4 (Herbicidal rate of 70% or more and less than 90%)	5 (Herbicidal rate of 90% or more (almost completely withered))	5 (Herbicidal rate of 90% or more (almost completely withered))	5 (Herbicidal rate of 90% or more (almost completely withered))	3 (Herbicidal rate of 40% or more and less than 70%)	2 (Herbicidal rate of 20% or more and less than 40%)	5 (Herbicidal rate of 90% or more (almost completely withered))	5 (Herbicidal rate of 90% or more (almost completely withered))	5 (Herbicidal rate of 90% or more (almost completely withered))	5 (Herbicidal rate of 90% or more (almost completely withered))	5 (Herbicidal rate of 90% or more (almost completely withered))	5 (Herbicidal rate of 90% or more (almost completely withered))	4 (Herbicidal rate of 70% or more and less than 90%)
CCCC(=O)Oc1c(C)nn(C)c(=O)c1-c1c(-c2ccc(F)cc2OCC)sc2cc(C)ccc12 [3-058]	0 (Herbicidal rate of 5% or less (almost no effect))	0 (Herbicidal rate of 5% or less (almost no effect))	5 (Herbicidal rate of 90% or more (almost completely withered))	5 (Herbicidal rate of 90% or more (almost completely withered))	2 (Herbicidal rate of 20% or more and less than 40%)	5 (Herbicidal rate of 90% or more (almost completely withered))	5 (Herbicidal rate of 90% or more (almost completely withered))	5 (Herbicidal rate of 90% or more (almost completely withered))	4 (Herbicidal rate of 70% or more and less than 90%)	0 (Herbicidal rate of 5% or less (almost no effect))	4 (Herbicidal rate of 70% or more and less than 90%)	4 (Herbicidal rate of 70% or more and less than 90%)	5 (Herbicidal rate of 90% or more (almost completely withered))	5 (Herbicidal rate of 90% or more (almost completely withered))	5 (Herbicidal rate of 90% or more (almost completely withered))	5 (Herbicidal rate of 90% or more (almost completely withered))	5 (Herbicidal rate of 90% or more (almost completely withered))
